Assay results from patent publication US7605178B2, “Therapeutic compounds” (Allergan, Inc., priority 2006, dated 2009).
pEC50, pKi: −log10 of the molar value.

Tests used:
hEP3A = target: T1, hEP3A (Homo sapiens, UniProt P43115); experiment: Other receptors: hEP3A functional EC50; format: cell-based
T1 sequence (P43115 1-390): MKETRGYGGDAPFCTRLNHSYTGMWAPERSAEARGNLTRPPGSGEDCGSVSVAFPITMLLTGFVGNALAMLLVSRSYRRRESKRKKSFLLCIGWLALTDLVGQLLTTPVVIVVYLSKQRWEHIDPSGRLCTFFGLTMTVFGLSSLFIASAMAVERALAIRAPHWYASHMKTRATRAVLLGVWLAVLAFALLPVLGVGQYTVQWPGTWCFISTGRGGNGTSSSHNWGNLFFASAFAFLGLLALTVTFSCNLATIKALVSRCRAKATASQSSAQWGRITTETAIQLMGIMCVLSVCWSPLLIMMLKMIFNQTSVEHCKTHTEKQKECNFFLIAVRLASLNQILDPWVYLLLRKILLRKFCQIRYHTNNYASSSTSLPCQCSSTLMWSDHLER
From the text: (§1) U.S. patent application Ser. No. 11/553,143, filed on Oct. 26, 2006, incorporated by reference herein, describes the methods used to obtain the in vitro data in the table below.

hDP = target: T2, hDP (Homo sapiens, UniProt Q13258); experiment: Other receptors: hDP functional EC50; format: cell-based
T2 sequence (Q13258 1-359): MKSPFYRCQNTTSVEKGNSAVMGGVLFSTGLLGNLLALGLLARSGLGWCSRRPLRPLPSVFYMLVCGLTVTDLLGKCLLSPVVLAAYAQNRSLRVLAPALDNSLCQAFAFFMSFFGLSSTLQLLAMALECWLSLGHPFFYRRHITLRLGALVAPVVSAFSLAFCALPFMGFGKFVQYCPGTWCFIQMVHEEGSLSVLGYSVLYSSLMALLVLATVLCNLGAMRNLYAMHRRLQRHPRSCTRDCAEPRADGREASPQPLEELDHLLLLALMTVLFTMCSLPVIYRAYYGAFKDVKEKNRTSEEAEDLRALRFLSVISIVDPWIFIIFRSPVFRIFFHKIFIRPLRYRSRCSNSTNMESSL
From the text: as §1

EP2 [1] = target: T3, EP2 (Homo sapiens, UniProt P43116); experiment: EP2 binding (Ki)
T3 sequence (P43116 whole entry): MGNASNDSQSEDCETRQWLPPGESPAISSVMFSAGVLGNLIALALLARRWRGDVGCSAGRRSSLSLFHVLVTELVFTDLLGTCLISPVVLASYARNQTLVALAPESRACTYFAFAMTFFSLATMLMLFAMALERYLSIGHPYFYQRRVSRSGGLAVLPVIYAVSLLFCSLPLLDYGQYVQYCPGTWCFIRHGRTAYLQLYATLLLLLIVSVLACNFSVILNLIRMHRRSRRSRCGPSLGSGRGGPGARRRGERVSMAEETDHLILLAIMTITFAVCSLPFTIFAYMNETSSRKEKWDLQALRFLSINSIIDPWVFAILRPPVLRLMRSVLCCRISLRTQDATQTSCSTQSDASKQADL
From the text: as §1

EP2 [2] = target: T3, EP2; experiment: EP2 cAMP; format: cell-based
From the text: as §1

EP2 [3] = target: T3, EP2; experiment: EP2 flipr; format: cell-based
From the text: as §1

EP4 [4] = target: T4, EP4 (Homo sapiens, UniProt P35408); experiment: EP4 binding (KI)
T4 sequence (P35408 whole entry): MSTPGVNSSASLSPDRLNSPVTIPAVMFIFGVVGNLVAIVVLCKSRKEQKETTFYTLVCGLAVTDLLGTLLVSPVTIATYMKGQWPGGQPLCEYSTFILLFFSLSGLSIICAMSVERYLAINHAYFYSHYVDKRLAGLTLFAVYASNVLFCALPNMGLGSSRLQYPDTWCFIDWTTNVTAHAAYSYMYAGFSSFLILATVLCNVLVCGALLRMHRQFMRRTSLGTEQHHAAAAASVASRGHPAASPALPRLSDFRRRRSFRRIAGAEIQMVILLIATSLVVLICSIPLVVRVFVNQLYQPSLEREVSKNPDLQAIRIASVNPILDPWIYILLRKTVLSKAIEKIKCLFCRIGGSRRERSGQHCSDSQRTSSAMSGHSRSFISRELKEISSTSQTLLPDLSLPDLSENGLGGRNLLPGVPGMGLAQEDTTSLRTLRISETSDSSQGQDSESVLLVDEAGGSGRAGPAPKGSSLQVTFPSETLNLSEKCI
From the text: as §1

hTP = target: T5, hTP (Homo sapiens, UniProt P21731); experiment: Other receptors: hTP functional EC50; format: cell-based
T5 sequence (P21731 1-343): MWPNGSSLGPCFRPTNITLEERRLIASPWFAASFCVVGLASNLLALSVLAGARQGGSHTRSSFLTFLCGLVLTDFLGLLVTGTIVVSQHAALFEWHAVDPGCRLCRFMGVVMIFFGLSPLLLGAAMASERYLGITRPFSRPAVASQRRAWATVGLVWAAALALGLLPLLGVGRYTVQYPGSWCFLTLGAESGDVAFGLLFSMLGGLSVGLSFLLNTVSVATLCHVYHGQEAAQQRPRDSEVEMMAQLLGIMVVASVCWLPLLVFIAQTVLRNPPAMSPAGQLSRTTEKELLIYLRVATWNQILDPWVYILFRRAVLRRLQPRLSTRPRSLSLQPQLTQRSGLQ
From the text: as §1

hIP = hIP (Homo sapiens, UniProt P43119); experiment: Other receptors: hIP functional EC50; format: cell-based
Sequence of hIP (P43119 whole entry): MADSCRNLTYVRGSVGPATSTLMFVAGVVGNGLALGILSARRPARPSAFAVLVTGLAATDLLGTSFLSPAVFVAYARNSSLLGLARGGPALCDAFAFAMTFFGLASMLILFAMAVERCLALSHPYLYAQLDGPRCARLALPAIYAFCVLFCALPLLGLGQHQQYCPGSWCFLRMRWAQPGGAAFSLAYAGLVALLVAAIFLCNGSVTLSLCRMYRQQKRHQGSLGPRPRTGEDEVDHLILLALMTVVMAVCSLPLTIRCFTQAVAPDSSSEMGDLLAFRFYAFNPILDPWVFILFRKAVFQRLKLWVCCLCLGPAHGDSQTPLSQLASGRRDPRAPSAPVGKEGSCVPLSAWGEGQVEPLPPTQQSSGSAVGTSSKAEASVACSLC
From the text: as §1

EP4 [5] = target: T4, EP4; experiment: EP4 flipr; format: cell-based
From the text: as §1

normotensive dogs = experiment: Intraocular pressure and ocular surface hyperemia in normotensive dogs; format: in vivo; conditions: 0.01%, once daily for 5 days
Procedure: (§2) U.S. Pat. No. 7,091,231 describes the methods used for these in vivo tests.
5-(3-((1R,2R,3R,5R)-5-chloro-2-((3,5-dichlorophenylthio)methyl)-3-hydroxycyclopentyl)propyl)-thiophene-2-carboxylic acid (20) was tested in normotensive dogs at 0.01%, dosing once daily for 5 days. The maximum intraocular pressure (IOP) decrease from baseline was 6.3 mmHg (35%) at 6 h; the maximum ocular surface hyperemia (OSH) score was 1.7 at 52 h.

[6] = tested on: laser-induced hypertensive monkeys; experiment: Intraocular pressure in laser-induced hypertensive monkeys; format: in vivo; conditions: 0.01%, one single day dose, at 24 h
Procedure: as §2
The composition and dosage regimen of In vivo example 1 was also tested in laser-induced hypertensive monkeys, using one single day dose. At 0.01%, the maximum IOP decrease from baseline was 13.9 mmHg (40%) at 24 h.

| SMILES | EC50 (hEP3A) [nM] | EC50 (hDP) [nM] | pKi (EP2 [1]) | pEC50 (EP2 [2]) | pEC50 (EP2 [3]) | pKi (EP4 [4]) | EC50 (hTP) [nM] | EC50 (hIP) [nM] | pEC50 (EP4 [5]) | maximum intraocular pressure (IOP) decrease from baseline (percent) (normotensive dogs; at 6 h) [%] | maximum ocular surface hyperemia (OSH) score (normotensive dogs; at 52 h) | maximum IOP decrease from baseline [6] [mmHg] | maximum IOP decrease from baseline (percent) [6] [%] |
| --- | --- | --- | --- | --- | --- | --- | --- | --- | --- | --- | --- | --- | --- |
| O=C(O)CCC/C=C\C[C@@H]1[C@@H](CSc2cc(Cl)cc(Cl)c2)[C@H](O)C[C@H]1Cl [compound 5, (Z)-7-[(1R,2R,3R,5R)-5-Chloro-2-(3,5-dichloro-phenylsulfanylmethyl)-3-hydroxy-cyclopentyl]-hept-5-enoic acid] | > 10000 | > 10000 | 7.66 | 9.40 | 5.47 | 6.42 | 1720 | > 10000 | < 5.00 | – | – | – | – |
| CC(=O)N(C[C@@H]1[C@@H](C/C=C\CCCC(=O)O)[C@H](Cl)C[C@H]1O)c1cc(Cl)cc(Cl)c1 [compound 10, (Z)-7-((1R,2S,3R,5R)-2-{[Acetyl-(3,5-dichloro-phenyl)-amino]-methyl}-5-chloro-3-hydroxy-cyclopentyl)-hept-5-enoic acid] | – | – | 5.68 | 7.54 | 5.20 | < 5.00 | 2680 | > 10000 | – | – | – | – | – |
| O=C(O)CCC/C=C\C[C@@H]1[C@@H](CNc2cc(Cl)cc(Cl)c2)[C@H](O)C[C@H]1Cl [compound 11, (Z)-7-{(1R,2S,3R,5R)-5-Chloro-2-[(3,5-dichloro-phenylamino)-methyl]-3-hydroxy-cyclopentyl}-hept-5-enoic acid] | > 10000 | – | 7.74 | 9.30 | 6.87 | 5.99 | > 10000 | > 10000 | < 5.00 | – | – | – | – |
| O=C(O)c1ccc(CCC[C@@H]2[C@@H](CNc3cc(Cl)cc(Cl)c3)[C@H](O)C[C@H]2Cl)s1 [compound 15, 5-(3-((1R,2S,3R,5R)-5-chloro-2-((3,5-dichlorophenylamino)methyl)-3-hydroxycyclopentyl)propyl)-thiophene-2-carboxylic acid] | – | – | 6.47 | 6.96 | < 5.00 | – | – | – | – | – | – | – | – |
| O=C(O)c1ccc(CCC[C@@H]2[C@@H](CSc3cc(Cl)cc(Cl)c3)[C@H](O)C[C@H]2Cl)s1 [compound 20, 5-(3-((1R,2R,3R,5R)-5-chloro-2-((3,5-dichlorophenylthio)methyl)-3-hydroxycyclopentyl)propyl)-thiophene-2-carboxylic acid] | – | – | 9.52 | 9.96 | 7.23 | 6.08 | – | – | < 5.00 | 35 | 1.7 | 13.9 | 40 |
| O=C(O)c1ccc(CCC[C@@H]2[C@@H](C[S+]([O-])c3cc(Cl)cc(Cl)c3)[C@H](O)C[C@H]2Cl)s1 (stereo partly drawn) [compound 22, 5-(3-((1R,2R,3R,5R)-5-chloro-2-((3,5-dichlorophenylsulfinyl)methyl)-3-hydroxycyclopentyl)propyl)-thiophene-2-carboxylic acid] | – | – | 7.92 | 9.40 | 7.00 | < 5.00 | 4210 | – | – | – | – | – | – |
| O=C(O)c1ccc(CCC[C@@H]2[C@@H](CSc3cc(F)cc(F)c3)[C@H](O)C[C@H]2Cl)s1 [compound 25, 5-(3-((1R,2R,3R,5R)-5-chloro-2-((3,5-difluorophenylthio)methyl)-3-hydroxycyclopentyl)propyl)-thiophene-2-carboxylic acid] | – | – | 8.05 | 8.89 | 6.07 | 5.63 | – | – | < 5.00 | – | – | – | – |
